These results are taken from article PMC8453848, “Effect of GLPG1205, a GPR84 Modulator, on CYP2C9, CYP2C19, and CYP1A2 Enzymes: In Vitro and Phase 1 Studies” (Clinical Pharmacology in Drug Development, 2021).

One series deals with CYP2C9 (Homo sapiens, UniProt P11712). Briefly: CYP2C9 inhibition, tolbutamide methylhydroxylase assay in human liver microsomes. Format: in vitro ADME. Further details: from tissue; host or cells: in vivo, 14 healthy male subjects. To be noted: for IC50: estimated. Here is the method:
Inhibition of the biotransformation of CYP‐specific substrates by GLPG1205 was studied using human liver microsomes. Incubation was performed at 37°C with the following conditions: n = 3 for all assays; 0.1 M phosphate buffer (pH 7.4), the cofactor nicotinamide adenine dinucleotide phosphate (NADPH) incubated at 2 mM, the CYP‐specific substrate incubated at 1 nonsaturating concentration, and GLPG1205. Additional incubation was performed with (1) a 30‐minute preincubation step of GLPG1205 with microsomes before the addition of the cofactor NADPH and CYP substrate; and (2) a 30‐minute preincubation step of GLPG1205 with microsomes and the cofactor NADPH, before the addition of the CYP substrate. […] The CYP‐specific substrates were incubated per the above conditions at the following concentrations: tolbutamide, 200 μM, CYP2C9 substrate; S‐mephenytoin, 60 μM, CYP2C19 substrate; phenacetin, 40 μM, CYP1A2 substrate.
Further details of the assays used for each CYP substrate are reported in the Supplemental Methods. Metabolites of the CYP‐specific substrates (acetaminophen for CYP1A2, hydroxytolbutamide for CYP2C9, hydroxymephenytoin for CYP2C19) were quantified using LC‐MS/MS.
Enzymatic activity in the presence of GLPG1205 was expressed as a percentage of the control activity obtained with the vehicle only (ie, without GLPG1205 or reference inhibitor). Decreases in activity of less than 20% were not considered clinically relevant.
Protocol for CYP Inhibition of the biotransformation of CYP-specific substrates by GLPG1205 was studied using human liver microsomes.^7 Incubations were performed at 37°C with the following conditions: n = 3 for all assays; 0.1 M phosphate buffer pH 7.4; the cofactor β-nicotinamide adenine dinucleotide phosphate (NADPH) incubated at 2 mM; the CYP-specific substrate incubated at one non-saturating concentration; and GLPG1205. Additional incubations were performed with: 1) a 30-minute preincubation step of GLPG1205 with microsomes before addition of the cofactor NADPH and CYP substrate; and 2) a 30-minute preincubation step of GLPG1205 with microsomes and the cofactor NADPH, before addition of the CYP substrate.
The CYP-specific substrates were incubated at the following conditions: tolbutamide (200 µM; CYP2C9); S-mephenytoin (60 µM; CYP2C19); phenacetin (40 µM; CYP1A2).^8-10 Reference inhibitors (as detailed in the previous section) were incubated in parallel. […]
A 2-fold dilution in D9-OH-tolbutamide at 1 µM in water with 0.1% formic acid was applied to the supernatants and then analysis was performed by LC-MS/MS with chromatographic separation. […] The quantification of the metabolite, hydroxytolbutamide, was performed in MRM mode using the 287.1 to 89.2 transition. […]

In a further series the test system is CYP3A4. Further details: method as in PMID 33960725, PMID 29780235. As to conditions: cortisol:6β‐hydroxycortisol ratio in urine; cited from earlier work.
The nature of series [1]: Test of solubility of GLPG1205 in culture medium for incubations. It counts as physicochemical. To be noted: culture medium for incubation; final DMSO percentage 0.4%; read-out: limit of solubility in culture medium for incubations. On the procedure: Solubility and cytotoxicity experiments were performed prior to incubation of GLPG1205 with cells.
Test of Solubility Prior to incubation of GLPG1205 with cells, a preliminary test of solubility was performed. Various stock solutions of GLPG1205 in dimethylsulfoxide (DMSO) were prepared. Different solutions were prepared by diluting the stock solutions in culture medium for incubation to obtain 100, 200, 250, 400 and 500 µM with different final percentages of solvent (maximum 0.5% DMSO, volume/volume [v/v]).

In brackets after ≈: the same amount, converted by molar mass. Several values for one entry are separate records, joined by “and”; a condition that tells them apart may be missing. Equal entries are not always repeated. Where two headings read alike, the source gives them in different places.

Chain of CYP2C9 (P11712 whole entry): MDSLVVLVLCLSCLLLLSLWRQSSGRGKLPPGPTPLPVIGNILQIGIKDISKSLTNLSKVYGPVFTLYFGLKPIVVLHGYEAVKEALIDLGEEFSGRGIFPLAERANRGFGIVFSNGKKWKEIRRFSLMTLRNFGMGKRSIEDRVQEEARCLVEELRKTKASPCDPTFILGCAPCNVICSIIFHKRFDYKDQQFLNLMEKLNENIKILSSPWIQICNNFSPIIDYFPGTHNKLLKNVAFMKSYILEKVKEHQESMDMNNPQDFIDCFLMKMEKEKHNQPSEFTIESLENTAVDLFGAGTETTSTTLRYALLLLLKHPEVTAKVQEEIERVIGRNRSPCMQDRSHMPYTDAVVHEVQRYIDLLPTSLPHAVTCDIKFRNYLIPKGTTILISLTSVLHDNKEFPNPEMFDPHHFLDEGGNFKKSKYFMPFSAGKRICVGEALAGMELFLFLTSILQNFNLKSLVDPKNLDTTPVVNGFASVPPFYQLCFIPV

Consider `O=c1nc(OC[C@@H]2COCCO2)cc2n1CCc1cc(C#CC3CC3)ccc1-2` [GLPG1205, 9‐cyclopropylethynyl‐2‐[(S)‐1‐(1,4)dioxan‐2‐ylmethoxy]‐6,7‐dihydropyrimido[6,1‐a]isoquinolin‐4‐one], for which the “inhibition of CYP2C9 in words” value against CYP2C9 (GLPG1205 50‐100 μM) is “moderate and reversible”. Moreover, the IC50 (as a rule, the point on the concentration scale where inhibition reaches its midpoint) at CYP2C9 (human liver microsomes, read-out: IC50 for inhibition of CYP2C9) is ~50 µM and ≥ 50 µM; at CYP2C9 (equivalent of ≥50 μM, read-out: IC50 for inhibition of CYP2C9, equivalent), ≥ 49.9 µM. The inhibition (in general, the relative decrease from the control value, in per cent) at 20 min against CYP2C9 (human, liver microsomes, pH 7.4, probe tolbutamide 200 µM, GLPG1205 50‐100 μM without preincubation, tolbutamide 200 μM) was in the range of 49 to 56.9%. Besides, the CYP3A4 induction entry in the series on CYP3A4 was “did not induce CYP3A4”. Further, the solubility (usually how much of the substance goes into solution per volume) at 24 h in series [1] was 100 µM (≈ 37.8 µg/mL).
